Where two headings read alike, the source gives them in different places.
Experiments:
Assay in all cases: cell-based
Set-up in all cases: species or system HEK293A; AP-TGFα shedding assay, transfected GPCR plus chimeric Gα mixture, AP release as % of TPA response
Settings in all cases: HEK293-A
[1] = molecular target: T1, neurotensin receptor type 2 (Homo sapiens, UniProt O95665)
T1 construct: gene NTSR2

[2] = molecular target: T2, 5-hydroxytryptamine receptor 1E (Homo sapiens, UniProt P28566)
T2 construct: gene HTR1E

[3] = molecular target: T3, chemokine (C-X3-C motif) receptor 1 (Homo sapiens, UniProt P49238)
T3 construct: gene CX3CR1
T3 sequence (P49238 1-355): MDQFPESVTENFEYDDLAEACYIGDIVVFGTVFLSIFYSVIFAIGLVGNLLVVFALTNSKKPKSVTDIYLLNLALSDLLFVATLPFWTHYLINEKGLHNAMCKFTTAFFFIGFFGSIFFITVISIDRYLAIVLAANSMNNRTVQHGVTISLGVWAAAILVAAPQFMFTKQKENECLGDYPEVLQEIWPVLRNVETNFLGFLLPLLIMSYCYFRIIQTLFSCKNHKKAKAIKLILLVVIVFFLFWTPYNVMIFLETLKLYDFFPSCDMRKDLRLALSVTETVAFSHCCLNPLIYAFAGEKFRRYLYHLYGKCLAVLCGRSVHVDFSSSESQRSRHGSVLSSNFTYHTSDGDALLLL

[4] = molecular target: T4, leukotriene B4 receptor 2 (Homo sapiens, UniProt Q9NPC1)
T4 construct: gene LTB4R2
T4 sequence (Q9NPC1 1-358): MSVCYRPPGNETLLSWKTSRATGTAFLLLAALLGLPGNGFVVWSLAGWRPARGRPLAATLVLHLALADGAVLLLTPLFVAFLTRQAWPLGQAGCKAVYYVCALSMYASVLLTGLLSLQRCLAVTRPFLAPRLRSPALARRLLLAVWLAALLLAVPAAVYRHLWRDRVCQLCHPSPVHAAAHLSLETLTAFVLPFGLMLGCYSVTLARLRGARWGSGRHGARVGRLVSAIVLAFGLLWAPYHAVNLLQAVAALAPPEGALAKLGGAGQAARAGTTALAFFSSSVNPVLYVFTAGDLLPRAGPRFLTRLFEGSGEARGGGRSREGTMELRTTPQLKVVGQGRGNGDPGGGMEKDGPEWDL

[5] = molecular target: T5, prostaglandin E receptor 3 iso6 (Homo sapiens, UniProt P43115)
T5 construct: gene PTGER3; iso6
T5 sequence (P43115 1-390): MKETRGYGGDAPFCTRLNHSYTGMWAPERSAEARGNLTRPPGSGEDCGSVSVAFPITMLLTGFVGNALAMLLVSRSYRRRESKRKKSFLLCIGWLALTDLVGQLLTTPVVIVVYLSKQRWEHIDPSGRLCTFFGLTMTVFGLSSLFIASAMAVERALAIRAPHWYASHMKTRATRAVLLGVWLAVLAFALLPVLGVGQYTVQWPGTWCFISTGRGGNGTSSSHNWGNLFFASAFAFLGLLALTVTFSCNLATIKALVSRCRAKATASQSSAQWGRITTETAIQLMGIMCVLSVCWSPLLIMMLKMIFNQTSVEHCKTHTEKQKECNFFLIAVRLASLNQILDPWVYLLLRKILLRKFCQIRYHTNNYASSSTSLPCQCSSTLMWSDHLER

[6] = molecular target: T6, C-C motif chemokine receptor 7 (Homo sapiens, UniProt P32248)
T6 construct: gene CCR7
T6 sequence (P32248 1-378): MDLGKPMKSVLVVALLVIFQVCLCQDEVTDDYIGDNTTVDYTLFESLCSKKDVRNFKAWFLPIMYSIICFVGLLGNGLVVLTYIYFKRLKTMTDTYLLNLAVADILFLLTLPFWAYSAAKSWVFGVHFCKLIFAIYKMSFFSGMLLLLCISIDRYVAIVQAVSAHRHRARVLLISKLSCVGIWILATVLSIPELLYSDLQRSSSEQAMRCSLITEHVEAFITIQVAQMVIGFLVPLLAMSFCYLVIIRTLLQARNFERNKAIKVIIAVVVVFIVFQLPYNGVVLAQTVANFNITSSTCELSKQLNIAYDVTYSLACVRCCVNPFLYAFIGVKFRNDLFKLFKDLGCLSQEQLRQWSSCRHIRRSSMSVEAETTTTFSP

[7] = molecular target: T7, purinergic receptor P2Y, G-protein coupled, 1 (Homo sapiens, UniProt P47900)
T7 construct: gene P2RY1

[8] = molecular target: T8, G protein-coupled receptor 183 (Epstein-Barr Virus Induced Gene 2) (Homo sapiens, UniProt P32249)
T8 construct: gene GPR183

[9] = molecular target: T9, 5-hydroxytryptamine receptor 1F (Homo sapiens, UniProt P30939)
T9 construct: gene HTR1F
T9 sequence (P30939 1-366): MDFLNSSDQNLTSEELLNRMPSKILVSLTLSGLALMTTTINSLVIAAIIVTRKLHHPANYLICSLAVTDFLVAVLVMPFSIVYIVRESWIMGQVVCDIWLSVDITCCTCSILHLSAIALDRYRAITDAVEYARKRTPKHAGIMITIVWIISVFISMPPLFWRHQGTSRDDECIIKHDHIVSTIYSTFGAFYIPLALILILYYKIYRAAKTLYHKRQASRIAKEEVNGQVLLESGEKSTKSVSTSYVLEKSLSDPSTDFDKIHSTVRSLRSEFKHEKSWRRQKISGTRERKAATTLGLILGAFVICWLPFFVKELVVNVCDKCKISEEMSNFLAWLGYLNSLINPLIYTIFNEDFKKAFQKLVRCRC

[10] = read-out: % GPCR activation of 10μM GS441524 compared to TPA
[11] = read-out: % GPCR activation of 10μM Sofosbuvir compared to TPA
[12] = read-out: % GPCR activation of 10µM Remdesivir compared to TPA
[13] = read-out: % GPCR activation of 10µM Molnupiravir compared to TPA
[14] = read-out: % GPCR activation of 100μM Favipiravir compared to TPA

T8 sequence (P32249 whole entry): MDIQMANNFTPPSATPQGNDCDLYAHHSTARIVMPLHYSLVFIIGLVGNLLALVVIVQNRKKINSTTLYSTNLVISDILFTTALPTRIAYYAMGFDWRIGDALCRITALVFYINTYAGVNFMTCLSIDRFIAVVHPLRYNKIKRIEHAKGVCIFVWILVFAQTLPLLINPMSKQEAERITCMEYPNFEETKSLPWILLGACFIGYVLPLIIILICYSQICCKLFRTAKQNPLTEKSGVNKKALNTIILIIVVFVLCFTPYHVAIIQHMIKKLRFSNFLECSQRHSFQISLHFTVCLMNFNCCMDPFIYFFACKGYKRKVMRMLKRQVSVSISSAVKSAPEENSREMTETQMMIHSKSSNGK
T7 sequence (P47900 whole entry): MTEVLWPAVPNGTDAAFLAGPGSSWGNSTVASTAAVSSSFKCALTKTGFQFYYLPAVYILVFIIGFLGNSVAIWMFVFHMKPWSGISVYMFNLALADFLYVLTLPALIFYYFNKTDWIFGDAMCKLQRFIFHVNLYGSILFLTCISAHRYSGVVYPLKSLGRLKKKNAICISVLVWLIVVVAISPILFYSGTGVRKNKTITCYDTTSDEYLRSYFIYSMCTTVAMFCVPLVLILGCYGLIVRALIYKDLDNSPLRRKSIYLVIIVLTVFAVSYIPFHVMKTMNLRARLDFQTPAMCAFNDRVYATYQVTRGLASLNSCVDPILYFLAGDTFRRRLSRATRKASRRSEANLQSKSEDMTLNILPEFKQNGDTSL
T2 sequence (P28566 whole entry): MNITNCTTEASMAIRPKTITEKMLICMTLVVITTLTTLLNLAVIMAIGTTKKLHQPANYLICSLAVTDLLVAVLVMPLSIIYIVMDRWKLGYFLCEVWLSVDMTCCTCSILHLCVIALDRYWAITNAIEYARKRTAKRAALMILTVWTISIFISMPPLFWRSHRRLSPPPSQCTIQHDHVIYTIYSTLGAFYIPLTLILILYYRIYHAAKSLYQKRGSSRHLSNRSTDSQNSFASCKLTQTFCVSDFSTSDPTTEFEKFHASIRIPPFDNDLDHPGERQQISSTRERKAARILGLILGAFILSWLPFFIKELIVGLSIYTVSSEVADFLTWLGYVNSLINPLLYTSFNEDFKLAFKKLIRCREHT
T1 sequence (O95665 whole entry): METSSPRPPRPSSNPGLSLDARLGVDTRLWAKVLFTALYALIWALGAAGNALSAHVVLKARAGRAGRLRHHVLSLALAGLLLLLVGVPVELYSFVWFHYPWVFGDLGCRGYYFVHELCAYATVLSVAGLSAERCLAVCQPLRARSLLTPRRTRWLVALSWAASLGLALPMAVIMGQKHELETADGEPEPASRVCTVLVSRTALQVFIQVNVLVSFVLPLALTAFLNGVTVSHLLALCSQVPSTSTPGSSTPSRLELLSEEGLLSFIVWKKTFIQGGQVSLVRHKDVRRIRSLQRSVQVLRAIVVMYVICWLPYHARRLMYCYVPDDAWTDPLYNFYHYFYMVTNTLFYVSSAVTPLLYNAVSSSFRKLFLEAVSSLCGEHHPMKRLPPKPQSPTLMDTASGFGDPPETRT

**Q.** Which activity at 10 µM [1, 10] does the source give for `N#C[C@@]1(c2ccc3c(N)ncnn23)O[C@H](CO)[C@@H](O)[C@H]1O` [GS441524] here?
**A.** The activity at 10 µM was 1.01%.

**Q.** And the activity at 10 µM [2, 10]?
**A.** Its activity at 10 µM is -1.38%.

**Q.** And the activity at 10 µM [3, 10]?
**A.** The activity at 10 µM was -0.521%.

**Q.** And the activity at 10 µM [4, 10]?
**A.** The activity at 10 µM was -0.182%.

**Q.** What about the activity at 10 µM [5, 10] of the same molecule?
**A.** The activity at 10 µM was -0.459%.

**Q.** What about the activity at 10 µM [6, 10] of the same molecule?
**A.** The activity at 10 µM was -0.998%.

**Q.** What about the activity at 10 µM [7, 10] of the same molecule?
**A.** Its activity at 10 µM is -0.459%.

**Q.** What about the activity at 10 µM [8, 10] of the same molecule?
**A.** The activity at 10 µM was -1.47%.

**Q.** And the activity at 10 µM [9, 10]?
**A.** The activity at 10 µM was 0.356%.

**Q.** Which activity at 10 µM [1, 11] does the source give for `CC(C)OC(=O)[C@H](C)N[P@](=O)(OC[C@H]1O[C@@H](n2ccc(=O)[nH]c2=O)[C@](C)(F)[C@@H]1O)Oc1ccccc1` [sofosbuvir] here?
**A.** Its activity at 10 µM is 0.255%.

**Q.** And the activity at 10 µM [2, 11]?
**A.** Its activity at 10 µM is -1.21%.

**Q.** And the activity at 10 µM [3, 11]?
**A.** Its activity at 10 µM is 0.247%.

**Q.** And the activity at 10 µM [4, 11]?
**A.** The activity at 10 µM was 1.86%.

**Q.** And the activity at 10 µM [5, 11]?
**A.** The activity at 10 µM was -2.67%.

**Q.** And the activity at 10 µM [6, 11]?
**A.** The activity at 10 µM was -0.917%.

**Q.** What about the activity at 10 µM [7, 11] of the same molecule?
**A.** Its activity at 10 µM is -4.63%.

**Q.** And the activity at 10 µM [8, 11]?
**A.** The activity at 10 µM was -0.758%.

**Q.** And the activity at 10 µM [9, 11]?
**A.** The activity at 10 µM was -0.816%.

**Q.** `CCC(CC)COC(=O)[C@H](C)N[P@](=O)(OC[C@H]1O[C@@](C#N)(c2ccc3c(N)ncnn23)[C@H](O)[C@@H]1O)Oc1ccccc1` [remdesivir] was tested. Which activity at 10 µM [1, 12] did it give?
**A.** The activity at 10 µM was -1.86%.

**Q.** And the activity at 10 µM [2, 12]?
**A.** The activity at 10 µM was -0.0718%.

**Q.** And the activity at 10 µM [3, 12]?
**A.** Its activity at 10 µM is 2.08%.

**Q.** And the activity at 10 µM [4, 12]?
**A.** Its activity at 10 µM is -0.974%.

**Q.** What about the activity at 10 µM [5, 12] of the same molecule?
**A.** The activity at 10 µM was 1.47%.

**Q.** What about the activity at 10 µM [7, 12] of the same molecule?
**A.** The activity at 10 µM was 11%.

**Q.** And the activity at 10 µM [8, 12]?
**A.** Its activity at 10 µM is 0.482%.

**Q.** What about the activity at 10 µM [9, 12] of the same molecule?
**A.** Its activity at 10 µM is -2.15%.

**Q.** How did the activity at 10 µM [1, 13] turn out when `CC(C)C(=O)OC[C@H]1O[C@@H](n2ccc(NO)nc2=O)[C@H](O)[C@@H]1O` [molnupiravir] was run?
**A.** Its activity at 10 µM is 0.128%.

**Q.** What about the activity at 10 µM [2, 13] of the same molecule?
**A.** Its activity at 10 µM is -0.994%.

**Q.** What about the activity at 10 µM [3, 13] of the same molecule?
**A.** Its activity at 10 µM is -0.579%.

**Q.** What about the activity at 10 µM [4, 13] of the same molecule?
**A.** Its activity at 10 µM is -0.206%.

**Q.** And the activity at 10 µM [5, 13]?
**A.** Its activity at 10 µM is -0.792%.

**Q.** And the activity at 10 µM [6, 13]?
**A.** Its activity at 10 µM is 0.546%.

**Q.** And the activity at 10 µM [7, 13]?
**A.** Its activity at 10 µM is -11.8%.

**Q.** And the activity at 10 µM [8, 13]?
**A.** Its activity at 10 µM is -0.842%.

**Q.** And the activity at 10 µM [9, 13]?
**A.** The activity at 10 µM was 0.719%.

**Q.** How did the activity at 100 µM [1, 14] turn out when `NC(=O)c1nc(F)cnc1O` [favipiravir, 6-fluoro-3-hydroxy-2-pyrazinecarboxamide] was run?
**A.** The activity at 100 µM was -3.41%.

**Q.** What about the activity at 100 µM [2, 14] of the same molecule?
**A.** Its activity at 100 µM is 0.555%.

**Q.** What about the activity at 100 µM [3, 14] of the same molecule?
**A.** Its activity at 100 µM is 0.0634%.

**Q.** What about the activity at 100 µM [4, 14] of the same molecule?
**A.** Its activity at 100 µM is -0.0275%.

**Q.** What about the activity at 100 µM [5, 14] of the same molecule?
**A.** Its activity at 100 µM is 0.28%.

**Q.** And the activity at 100 µM [6, 14]?
**A.** Its activity at 100 µM is -0.335%.

**Q.** And the activity at 100 µM [7, 14]?
**A.** The activity at 100 µM was 0.43%.

**Q.** What about the activity at 100 µM [8, 14] of the same molecule?
**A.** The activity at 100 µM was -1.16%.

**Q.** And the activity at 100 µM [9, 14]?
**A.** Its activity at 100 µM is 1.63%.
